Measured values as given in paper PMC6972948 (Scientific Reports, 2020).

Test system: A/duck/Ukraine/1/1963
Format: cell-based, avian influenza A virus

CCC(CC)O[C@@H]1C=C(C(=O)O)C[C@H](N)[C@H]1NC(C)=O [Oseltamivir carboxylate, oseltamivir carboxylate] was tested, and the plaque formation was “complete abrogation of plaque formation”, the Plaque dia. (Conc. 1 μM) was 0 mm and the Plaque qty. (Conc. 1 μM) was 0.
